# Experimental data: patent US20070270393A1, “Methods and compositions for modulation of sleep cycle” (priority 2006, published 2007)
# Columns and labels:
# subjects with insomnia = test: Polysomnogram measures, double-blinded placebo controlled study of 5 days mifepristone in insomnia; assay type: in vivo, human; conditions: for % REM, average / % S1, average / % S2, average / % S3, average / % S4, average / Arousal, average / NUAW, average / Rem Lat, average / Rem density, average / S3 Lat, average / SE (S2, S3, S4), average / SE (S3, S4), average / SPT, average / TST, average / WASO, average: Rx Ave (n = 5)
# [1] = test system: HPA axis activity (cortisol, ACTH) and melatonin in chronic insomnia subjects; test: Overnight melatonin (dim light), cortisol and ACTH levels in the insomnia study; assay type: in vivo, human; conditions: after 5 days treatment in the outpatient setting, FIG. 3
# [2] = test system: HPA axis activity in healthy control subject; test: 2 days of a GR antagonist in healthy control subject under constant routine conditions, salivary cortisol; assay type: in vivo, human; conditions: 400 mg for two consecutive days, single healthy subject, FIG. 5
# Protocol: In a separate experiment, the longitudinal effects of 2 days of a GR antagonist on melatonin and HPA axis activity was measured in healthy control subject during an inpatient stay under constant routine conditions. […] Salivary cortisol, ACTH and dim light melatonin were measured the evening/morning before and on the second evening/morning of medication. The design was created to include measures of the phase of night-time DLMO as well as measures of the morning response of the HPA axis, including timing of cortisol acrophase. The design was formulated to ascertain circadian phase shifting in a controlled setting with healthy subjects (as might occur in jet-lag or shift work). […] Salivary melatonin samples were insufficient.
# [3] = one study, Kawai (1989); cited from earlier work
# [4] = target: T1, glucocorticoid (GR) receptors (Homo sapiens, UniProt P04150); conditions: literature; cited from earlier work
# T1 sequence (P04150 1-777): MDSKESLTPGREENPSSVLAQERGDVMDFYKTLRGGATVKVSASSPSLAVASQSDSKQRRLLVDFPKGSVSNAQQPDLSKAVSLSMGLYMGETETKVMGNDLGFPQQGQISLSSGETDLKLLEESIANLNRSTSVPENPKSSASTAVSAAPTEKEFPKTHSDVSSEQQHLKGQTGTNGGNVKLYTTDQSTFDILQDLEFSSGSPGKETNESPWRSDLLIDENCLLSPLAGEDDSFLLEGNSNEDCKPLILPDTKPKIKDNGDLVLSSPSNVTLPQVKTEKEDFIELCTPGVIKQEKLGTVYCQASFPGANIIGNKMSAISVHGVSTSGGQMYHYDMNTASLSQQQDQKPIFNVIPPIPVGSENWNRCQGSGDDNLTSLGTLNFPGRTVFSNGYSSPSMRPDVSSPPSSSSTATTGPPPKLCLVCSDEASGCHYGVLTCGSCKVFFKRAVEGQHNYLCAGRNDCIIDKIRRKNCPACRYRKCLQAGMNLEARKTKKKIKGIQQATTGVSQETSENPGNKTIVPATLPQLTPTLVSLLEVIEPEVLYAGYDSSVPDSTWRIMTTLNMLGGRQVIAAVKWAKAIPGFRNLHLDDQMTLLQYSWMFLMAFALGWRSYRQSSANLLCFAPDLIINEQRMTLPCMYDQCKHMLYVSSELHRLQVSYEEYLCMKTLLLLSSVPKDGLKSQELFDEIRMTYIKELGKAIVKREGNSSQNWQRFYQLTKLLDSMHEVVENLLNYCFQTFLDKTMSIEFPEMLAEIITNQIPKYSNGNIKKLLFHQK
# healthy male = conditions: given in the afternoon, Wiedemann 1992; cited from earlier work
# [5] = 2 Wk Post Tx rel to Baseline, Tx Delta
# [6] = 2 Wk Post Tx rel to Baseline, Tx rel to Plac
# [7] = Day 5 Tx rel to Baseline, Tx Delta
# [8] = Day 5 Tx rel to Baseline, Tx rel to Plac
smiles,measurement,setting,value
"CC#C[C@]1(O)CC[C@H]2[C@@H]3CCC4=CC(=O)CCC4=C3[C@@H](c3ccc(N(C)C)cc3)C[C@@]21C [mifepristone, 17-beta-hydroxy-11-beta-(4-dimethyl-aminophenyl)-17-alpha-(1-propynyl)-estra-4,9-dien-3-one]",% REM (percentage REM sleep),subjects with insomnia; [5],1.63%
same,% S1 (percentage stage 1 sleep),subjects with insomnia; [5],−39.19%
same,% S2 (percentage stage 2 sleep),subjects with insomnia; [5],−2.68%
same,% S3 (percentage stage 3 sleep),subjects with insomnia; [5],1.09%
same,% S4 (percentage stage 4 sleep),subjects with insomnia; [5],−1.48%
same,Arousal,subjects with insomnia; [5],5.2
same,NUAW (number of awakenings),subjects with insomnia; [5],0
same,Rem Lat (minutes to first epoch of REM after sleep onset),subjects with insomnia; [5],-4 min
same,Rem p,subjects with insomnia; [5],1.972
same,S3 Lat (latency to onset of stage 3 sleep),subjects with insomnia; [5],-0.85 min
same,"SEB (S2, S3, S4) (total combined minutes of stage 2, 3 and 4 per total sleep minutes)",subjects with insomnia; [5],2.57
same,"SEC (S3, S4) (total combined minutes of stage 3, 4 per total sleep minutes)",subjects with insomnia; [5],1.19
same,SPT,subjects with insomnia; [5],28.1 min
same,TST (total combined minutes of sleep),subjects with insomnia; [5],38.5 min
same,WASO (wake after sleep onset),subjects with insomnia; [5],-10.4 min
same,% REM (percentage REM sleep),subjects with insomnia; [6],1.31%
same,% S1 (percentage stage 1 sleep),subjects with insomnia; [6],−0.01%
same,% S2 (percentage stage 2 sleep),subjects with insomnia; [6],−5.05%
same,% S3 (percentage stage 3 sleep),subjects with insomnia; [6],1.45%
same,% S4 (percentage stage 4 sleep),subjects with insomnia; [6],−0.98%
same,Arousal,subjects with insomnia; [6],−3.7
same,NUAW (number of awakenings),subjects with insomnia; [6],1.5
same,Rem Lat (minutes to first epoch of REM after sleep onset),subjects with insomnia; [6],39.5 min
same,Rem p,subjects with insomnia; [6],2.73
same,S3 Lat (latency to onset of stage 3 sleep),subjects with insomnia; [6],23.1 min
same,"SEB (S2, S3, S4) (total combined minutes of stage 2, 3 and 4 per total sleep minutes)",subjects with insomnia; [6],−1.34
same,"SEC (S3, S4) (total combined minutes of stage 3, 4 per total sleep minutes)",subjects with insomnia; [6],2.02
same,SPT,subjects with insomnia; [6],29.55 min
same,TST (total combined minutes of sleep),subjects with insomnia; [6],21.65 min
same,WASO (wake after sleep onset),subjects with insomnia; [6],7.85 min
same,% REM (percentage REM sleep),subjects with insomnia; [7],−9.33%
same,% S1 (percentage stage 1 sleep),subjects with insomnia; [7],−38.34%
same,% S2 (percentage stage 2 sleep),subjects with insomnia; [7],6.44%
same,% S3 (percentage stage 3 sleep),subjects with insomnia; [7],0.76%
same,% S4 (percentage stage 4 sleep),subjects with insomnia; [7],−0.01%
same,Arousal,subjects with insomnia; [7],0.9
same,NUAW (number of awakenings),subjects with insomnia; [7],3.3
same,Rem Lat (minutes to first epoch of REM after sleep onset),subjects with insomnia; [7],61.15 min
same,Rem p,subjects with insomnia; [7],−0.826
same,S3 Lat (latency to onset of stage 3 sleep),subjects with insomnia; [7],7.05 min
same,"SEB (S2, S3, S4) (total combined minutes of stage 2, 3 and 4 per total sleep minutes)",subjects with insomnia; [7],−2.13
same,"SEC (S3, S4) (total combined minutes of stage 3, 4 per total sleep minutes)",subjects with insomnia; [7],−7.3
same,SPT,subjects with insomnia; [7],28.69 min
same,TST (total combined minutes of sleep),subjects with insomnia; [7],17.05 min
same,WASO (wake after sleep onset),"subjects with insomnia; Day 5 Tx rel to Baseline, Tx Delta, 600 mg/day in the morning, 5 days",16.4 min
same,% REM (percentage REM sleep),subjects with insomnia; [8],−9.69%
same,% S1 (percentage stage 1 sleep),subjects with insomnia; [8],1.76%
same,% S2 (percentage stage 2 sleep),subjects with insomnia; [8],3.9%
same,% S3 (percentage stage 3 sleep),subjects with insomnia; [8],0.71%
same,% S4 (percentage stage 4 sleep),subjects with insomnia; [8],0.42%
same,Arousal,subjects with insomnia; [8],−3.8
same,NUAW (number of awakenings),subjects with insomnia; [8],5
same,Rem Lat (minutes to first epoch of REM after sleep onset),subjects with insomnia; [8],99.6 min
same,Rem p,subjects with insomnia; [8],0.654
same,S3 Lat (latency to onset of stage 3 sleep),subjects with insomnia; [8],19.35 min
same,"SEB (S2, S3, S4) (total combined minutes of stage 2, 3 and 4 per total sleep minutes)",subjects with insomnia; [8],−6.85
same,"SEC (S3, S4) (total combined minutes of stage 3, 4 per total sleep minutes)",subjects with insomnia; [8],−7.45
same,SPT,subjects with insomnia; [8],29.39 min
same,TST (total combined minutes of sleep),subjects with insomnia; [8],-3.75 min
same,WASO (wake after sleep onset),subjects with insomnia; [8],37.85 min
same,"% REM, average",subjects with insomnia; T2,11.62%
same,"% S1, average",subjects with insomnia; T2,15.48%
same,"% S2, average",subjects with insomnia; T2,60.26%
same,"% S3, average",subjects with insomnia; T2,7.63%
same,"% S4, average",subjects with insomnia; T2,4.36%
same,"Arousal, average",subjects with insomnia; T2,105.70
same,"NUAW, average",subjects with insomnia; T2,27.60
same,"Rem Lat, average",subjects with insomnia; T2,137.95 min
same,"Rem density, average",subjects with insomnia; T2,7.16
same,"S3 Lat, average",subjects with insomnia; T2,24.80 min
same,"SE (S2, S3, S4), average",subjects with insomnia; T2,83.34
same,"SE (S3, S4), average",subjects with insomnia; T2,24.94
same,"SPT, average",subjects with insomnia; T2,469.24 min
same,"TST, average",subjects with insomnia; T2,390.65 min
same,"WASO, average",subjects with insomnia; T2,83.35 min
same,"% REM, average",subjects with insomnia; T3,22.58%
same,"% S1, average",subjects with insomnia; T3,14.63%
same,"% S2, average",subjects with insomnia; T3,51.14%
same,"% S3, average",subjects with insomnia; T3,7.96%
same,"% S4, average",subjects with insomnia; T3,2.89%
same,"Arousal, average",subjects with insomnia; T3,110.00
same,"NUAW, average",subjects with insomnia; T3,24.30
same,"Rem Lat, average",subjects with insomnia; T3,72.80 min
same,"Rem density, average",subjects with insomnia; T3,9.95
same,"S3 Lat, average",subjects with insomnia; T3,16.90 min
same,"SE (S2, S3, S4), average",subjects with insomnia; T3,88.04
same,"SE (S3, S4), average",subjects with insomnia; T3,33.43
same,"SPT, average",subjects with insomnia; T3,468.65 min
same,"TST, average",subjects with insomnia; T3,412.10 min
same,"WASO, average",subjects with insomnia; T3,56.55 min
same,"total sleep time (TST), in words",subjects with insomnia; at 2 weeks post treatment,increased
same,"REM latency (RL), in words",subjects with insomnia; most acutely during active treatment,increased
same,DLMO (time at which melatonin reaches 20 pg/ml),[1],delay
same,cortisol,[2],rise
same,timing of the morning acrophase of cortisol,[2],delay
same,excreted in the urine,[3],less than 0.5 % of the daily dose
same,antagonist of glucocorticoid (GR) receptors,[4],powerful antagonist
same,effect on sleep,healthy male,significant worsening of sleep
